Source: patent US20180021320A1, “Method of Preventing or Treating Hearing Loss” (SUPPORT-VENTURE GMBH, priority 2015, published 2018)
Entries after “also recorded” stand apart in the source; their conditions may differ.

Columns and labels:
[1] = tested on: hair cells of organ of Corti (OC) explants; experiment: Protection against gentamicin-induced hair cell loss in rat organ of Corti explants; format: cell-based, Sprague-Dawley rats
Method: All animal procedures were carried out according to protocols approved by the Kantonales Veterinäramt, Basel, Switzerland. Postnatal day 5 (p5) Sprague-Dawley rats were used for the studies. Studies were performed in vitro, using organ of Corti (OC) explants from p5 animals. Animals were sacrificed and the cochleae carefully dissected to separate the organ of Corti from the spiral ganglion, stria vascularis and Reissner's membrane [Sobkowicz H M, Loftus J M, Slapnick S M. Acta Otolaryngol Suppl. 1993; 502:3-36].
(§1) OCs were harvested then placed in culture medium [Dulbecco's Modified Eagle Medium supplemented with 10% FCS, 25 mM HEPES and 30 U/ml penicillin (Invitrogen, Carlsbad, Calif., USA)] and incubated for 24 hours at 37° C. in an atmosphere of 95% O2/5% CO2. After that period, the culture medium was replaced with fresh medium containing no compound or 200 μM gentamycin alone or 200 μM gentamicin with either 2 or 10 μM pioglitazone, and incubated for a further 48 hours at 37° C. Ten OC explants were used for each treatment condition.
(§2) After incubation with compounds, the OCs were fixed in 4% paraformaldehyde, washed and then stained with a fluorescein (FITC)-conjugated phalloidin to detect inner and outer hair cells. After staining, the OCs were visualized and photographed using a fluorescence microscope (Olympus FSX100). Outer and inner hair cells were separately quantitated for the apical, basal, and middle turn of each organ of Corti. The values for each turn were averaged for the 10 OCs used for each condition. Significant differences between treatment groups in numbers OHC and IHC were determined using analysis of variance (ANOVA) followed by the least significant difference (LSD) post-hoc test (Stat View 5.0). Differences associated with P-values of less than 0.05 were considered to be statistically significant. All data are presented as mean±SD.

[2] = tested on: noise-induced hearing loss; experiment: Protection against noise-induced hearing loss, auditory brainstem response (ABR); format: in vivo, guinea pigs; details: for threshold shift (ABR), mean±SD: single 40 μl round window application day before noise
Description: The guinea pig model is the preferred animal species in hearing research. The agent application as well as the noise trauma was applied under general anesthesia. Upon arrival, animals underwent an acclimatization period of at least one week prior to experiments.
Guinea pigs were first anaesthetized and hearing evaluated by a standard ABR method then into treatment groups. Each animal received a single round window application of test substance to both ears. The following day, animals were exposed to 115 dB broad band noise for 2 hrs under anaesthesia. At one and two weeks following noise exposure, the animals underwent a second hearing evaluation.
Animals were dosed with a single 40 μl application of pioglitazone formulation or matching vehicle, onto the cochlear round window in both ears the day prior to noise exposure. For this approach, a hole was drilled in the rostral part of the skull to directly access the Bulla which allows drug application to the round window under visual control.
Animals were noise-exposed in a soundproof chamber (0.8×0.8×0.8 m, minimal attenuation 60 dB) for 2 h to broadband white noise (5-20 kHz) at 115 dB sound pressure level (SPL) under anaesthesia (60 mg/kg ketamine and 6 mg/kg xylazine). Noise was delivered binaurally by loudspeakers (HTC 11.19; Visaton, Haan, Germany) placed above the animal's head. The speakers were connected to an audio amplifier (Tangent AMP-50; Aulum, Denmark) and a DVD player.
At baseline before the noise exposure and on day 7 and 14 after noise, frequency-specific (2; 4; 8; 12; 16; 20; 24; 28; 32; 36; 40 kHz) auditory brainstem responses (ABR) were recorded in all treated animals and in controls. Auditory stimuli were delivered binaurally at different SPLs with a sinusoid generator (Model SSU2; Werk Fernmeldewesen, Berlin, Germany). Frequency output was controlled and adjusted with a digital counter (1941A Digital Counter; Fluke, Scarborough, Ontario, Canada). Sub-dermal needle electrodes were placed at the vertex (active), mastoid (reference), and in one foot (ground). ABR recordings were carried out with a Viking IV-measurement system (Viasys Healthcare, Conshohocken, Pa.). The brainstem responses were amplified (100,000×), filtered (bandpass 0.15-3 kHz), and averaged (300×) by the Viking IV-system. The amplitudes of the ABR waves were measured at different sound intensities by changing the attenuation of signal amplification. The amplitude-growth function was calculated for each tested frequency, and a linear regression was fitted to the linear portion of the data. The hearing threshold could be calculated for each frequency by extrapolating the linear amplitude-grow function of the regression line to zero. […]

[3] = tested on: hair cells of mouse OC's in culture; experiment: Protection against gentamicin-induced hair cell loss in mouse organ of Corti explants; format: cell-based; details: 24 h; for loss of hair cells: 50 μM gentamicin alone
Method: as §1, §2
Methods were similar to those in Example 1. The main differences were that mouse OC's were used rather than rat OC's. Moreover, treatment was performed for 24 hrs with 50 μM gentamicin. The number of OC's used for each experimental condition was 3-5. The concentrations of test substances were 2 μM and 10 μM for tesaglitazar and muraglitazar, and 25 μM and 150 μM for fenofibric acid.

[4] = 2 μM test substance with 50 μM gentamicin
[5] = 10 μM test substance with 50 μM gentamicin
[6] = concentration not stated, 50 μM gentamicin, medio-basal turns

For CCc1ccc(CCOc2ccc(CC3SC(=O)NC3=O)cc2)nc1 (stereo not drawn) [Pioglitazone, pioglitazone], which “prevention of gentamicin-dependent hair cell loss (IHC and OHC; apical, basal, middle turns)” value ([1]; 2 μM pioglitazone with 200 μM gentamicin, 48 h) is on record?
Its value is “significantly prevent gentamicin-dependent hair cell loss in all turns”.

And the “prevention of gentamicin-dependent hair cell loss (IHC and OHC; apical, basal, middle turns)” value ([1]; 2 μM pioglitazone with 200 μM gentamicin, 48 h, listed as pioglitazone)?
Its value is “completely prevent gentamicin-dependent hair cell loss in all turns”.

And the “prevention of gentamicin-dependent hair cell loss (IHC and OHC; apical, basal, middle turns)” value ([1]; 10 μM pioglitazone with 200 μM gentamicin, 48 h)?
The value was “significantly prevent gentamicin-dependent hair cell loss in all turns”.

And the “prevention of gentamicin-dependent hair cell loss (IHC and OHC; apical, basal, middle turns)” value ([1]; 10 μM pioglitazone with 200 μM gentamicin, 48 h, listed as pioglitazone)?
Its value is “completely prevent gentamicin-dependent hair cell loss in all turns”.

And the “prevention of gentamicin-dependent hair cell loss” value ([1]; pioglitazone co-treatment, concentration not stated, 48 h)?
The value was “almost completely preventing gentamicin-dependent hair cell loss”.

What about the “reduction in the threshold shifts vs. vehicle controls” value ([2]; hearing recorded 7-14 days after noise trauma) of the same compound?
Its value is greater than 50%.

And the “threshold shift (ABR), mean±SD” value ([2]; one week after noise (115 dB, 2 h), 5-20 kHz)?
Its value is 12.7±1.3 dB.

What about the “protection from noise-induced hearing loss” value ([2]; one week after noise, vs. vehicle) of the same compound?
Its value is “approximately 60%”.

And the “threshold shift (ABR), mean±SD” value ([2]; two weeks after noise (115 dB, 2 h))?
Its value is 6.3±3.9 dB.

Tesaglitazar was tested. Which “protection from gentamicin-dependent hair cell loss” value [3, 4] did it give?
Its value is “able to antagonize the effects of gentamicin and to preserve hair cell number and morphology”.

What about the “protection from gentamicin-dependent hair cell loss” value [3, 5] of the same compound?
The value was “able to antagonize the effects of gentamicin and to preserve hair cell number and morphology”.

And the “protection from gentamicin-dependent hair cell loss” value [3, 6]?
The value was “protected from gentamicin-dependent hair cell loss; also recorded: significantly prevent gentamicin-dependent hair cell loss”.

For gentamicin, which “loss of hair cells” value [3] is on record?
The value was “approximately 50%”.

What about the “loss of hair cells” value ([3]; listed as Gentamicin) of the same compound?
The value was 50%.

And the “reduction of hair cell number” value ([1]; 200 μM gentamicin alone, 48 h in culture, each segment)?
Its value is 50-70%.

With fenofibric acid as the compound, how does the “protection from gentamicin-dependent hair cell loss” value ([3]; 25 μM test substance with 50 μM gentamicin) read?
The value was “not effective”.

What about the “protection from gentamicin-dependent hair cell loss” value ([3]; 150 μM test substance with 50 μM gentamicin) of the same compound?
Its value is “completely protective”.

What about the “protection from gentamicin-dependent hair cell loss” value [3, 6] of the same compound?
Its value is “protected from gentamicin-dependent hair cell loss; also recorded: significantly prevent gentamicin-dependent hair cell loss”.

Which “protection from gentamicin-dependent hair cell loss” value [3, 4] does the source give for COc1ccc(OC(=O)N(CC(=O)O)Cc2ccc(OCCc3nc(-c4ccccc4)oc3C)cc2)cc1 [Muraglitazar] here?
Its value is “not effective”.

And the “protection from gentamicin-dependent hair cell loss” value [3, 5]?
Its value is “partially protective”.

And the “protection from gentamicin-dependent hair cell loss” value [3, 6]?
The value was “protected from gentamicin-dependent hair cell loss; also recorded: significantly prevent gentamicin-dependent hair cell loss”.
